Data: BigSolDB 2.1

CO/N=C(\C(=O)N[C@@H]1C(=O)N2C(C(=O)[O-])=C(COC(C)=O)CS[C@H]12)c1csc(N)n1.[Na+]
solubility (mole fraction)
Details	in DMF	in DMSO	in NMP	in formamide	in water
278.15 K	0.0407	–	0.000254	0.0483	0.018
280.15 K	0.0413	–	0.000935	0.0503	0.0181
282.15 K	–	–	–	–	0.0182
283.15 K	0.0436	–	0.00152	0.053	0.0183
285.15 K	0.0462	–	0.00192	0.0562	0.0184
287.15 K	–	–	–	–	0.0184
288.15 K	0.0474	–	0.00279	0.0596	0.0184
290.15 K	0.0537	–	0.00383	0.0615	0.0185
292.15 K	–	–	–	–	0.0186
293.15 K	0.057	0.0738	0.00524	0.0644	0.0188
295.15 K	0.06	0.0744	0.00869	0.0652	0.0188
297.15 K	–	0.0751	–	–	0.0189
298.15 K	0.0662	0.0755	0.0118	0.0674	0.0189
300.15 K	0.069	0.077	0.038	0.0688	–
302.15 K	–	0.0777	–	–	–
303.15 K	0.0757	0.0779	0.0737	0.0702	–
305.15 K	0.0785	0.0783	0.083	0.0719	–
307.15 K	–	0.0785	–	–	–
308.15 K	0.0845	0.0788	0.103	0.0733	–
